Reference: ChEMBL document CHEMBL1151636, “Atractyloside, toxic compound from Wedelia glauca” (J Nat Prod, 1984)

Tested on: Mus musculus
Experiment: Toxicity in ip dosed mouse assessed as respiratory arrest
Format: organism-based
Details: in vivo

C=C1[C@@H]2CCC3[C@@](CC[C@@H]4[C@H](C(=O)O)C[C@@H](O[C@@H]5O[C@H](CO)[C@@H](OS(=O)(=O)[O-])[C@H](OS(=O)(=O)[O-])[C@H]5OC(=O)CC(C)C)C[C@@]34C)(C2)[C@@H]1O.[K+].[K+] (stereo partly specified) [ATRACTYLOSIDE]
Activity: Toxic
